Source: US20240385195A1, “PEPTIDE FOR DETECTING CA125 AND USE THEREOF” (Ajou University Industry-Academic Cooperation Foundation, priority 2022, published 2024)
No end group written: not given here.

Experiments:
CA125 protein = assay: ELISA assay of binding affinity and specificity; design: species or system human; conditions: HRP-conjugated M13 antibody, TMB, FIG. 1
Method: (§1) In order to evaluate the binding affinity and specificity of the discovered SEQ ID NO: 1 peptide to the CA125 protein, and the binding affinity and specificity of the SEQ ID NO: 2 peptide to HE4, ELISA assay was performed according to the manufacturer's instructions using CA125 protein (R&D Systems Inc, MN, USA), HE4 protein (Sinobiological, PA, USA), HRP-conjugated M13 antibody (Sinobiological, PA, USA), and TMB solution (Thermo Scientific, MA, USA). In addition, to measure the binding affinity Kd (dissociation constant), the discovered peptides of SEQ ID NO: 1 and SEQ ID NO: 2 were synthesized (Biostem, Suwon, Korea), CA125 protein and HE4 protein were each fluorescently labeled using Protein Labeling kit RED-NHS 2nd Generation (NanoTemper Technologies, Munich, Germany). Afterwards, the binding affinity between peptide and protein was measured using Monolith NT.115 (NanoTemper Technologies, Munich, Germany) according to the manufacturer's instructions.

HE4 protein = target: T1, HE4 protein (Homo sapiens, UniProt Q14508); assay: ELISA assay of binding affinity and specificity; conditions: HRP-conjugated M13 antibody, TMB, FIG. 1
T1 construct: purchased Sinobiological, PA, USA
T1 sequence (Q14508 31-124): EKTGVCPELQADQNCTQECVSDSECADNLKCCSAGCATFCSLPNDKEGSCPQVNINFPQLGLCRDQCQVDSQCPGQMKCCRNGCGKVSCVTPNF
Method: as §1

specific binding to CA125 protein (CA125 protein)	specific binding to HE4 protein (HE4 protein)	Substance
specifically bound to the CA125 protein	–	HTHGAARVPDHR [SEQ ID NO: 1]
–	specifically bound to the HE4 protein	LGSKPIN [SEQ ID NO: 2, LGSKPIN]
